Results taken from ChEMBL document CHEMBL1158954, “Anti-AIDS agents, 3. Inhibitory effects of colchicine derivatives on HIV replication in H9 lymphocyte cells” (J Nat Prod, 1991).

Key:
[1] = system: H9 (Homo sapiens); experiment: microbe, parasite or virus in culture; settings: H9, 72 h
[2] = system: H9; experiment: Cytotoxicity against human H9 cells; format: ADME, cell-based

| IC50 [1] [µM] | Compound | EC50 [2] [µM] |
| --- | --- | --- |
| 2.8 | COc1cc2c(c(OC)c1OC)-c1ccc(=O)c(OC)cc1[C@@H](N)CC2 | 2.8 |
| 0.085 | COc1cc2c(c(OC)c1OC)-c1ccc(N(C)C)c(=O)cc1[C@@H](NC(C)=O)CC2 | 0.085 |
| – | COc1cc(C(=O)N[C@H]2CCc3cc(OC)c(OC)c(OC)c3-c3ccc(OC(=O)c4cc(OC)c(OC)c(OC)c4)c(=O)cc32)cc(OC)c1OC | 1.4 |
| 0.26 | COc1cc2c(c(OC)c1O)-c1ccc(OC)c(=O)cc1[C@@H](NC(C)=O)CC2 [2-DESMETHYLCOLCHICIN] | 0.26 |
| 0.2 | COc1cc2c(c(OC)c1OC)-c1ccc(O)c(=O)cc1[C@@H](NC(=O)C(F)(F)F)CC2 | 0.57 |
| > 2.7 | COc1cc2c(c(OC)c1OC)-c1ccc(=O)c(N(C)C)cc1[C@@H](N)CC2 | > 2.7 |
| 1.6 | COc1cc2c(c(OC)c1OC)-c1ccc(N(C)C)c(=O)cc1[C@@H](N)CC2 | 0.94 |
| 0.052 | COc1cc2c(c(OC)c1O)-c1ccc(SC)c(=O)cc1[C@@H](NC(C)=O)CC2 | 0.047 |
| 0.18 | COc1cc(/C=C/C(=O)N[C@H]2CCc3cc(OC)c(OC)c(OC)c3-c3ccc(OC)c(=O)cc32)cc(OC)c1O | 0.18 |
| 1.4 | COc1cc2c(c(OC)c1O)-c1ccc(SC)c(=O)cc1[C@@H](N)CC2 | 1.1 |
| 0.29 | COc1cc2c(c(OC)c1OC)-c1ccc(OC)c(=O)cc1[C@@H](NC(=O)/C=C/c1ccc(O)c(O)c1)CC2 | 0.29 |
| 0.0055 | COc1cc(/C=C/C(=O)N[C@H]2CCc3cc(OC)c(OC)c(OC)c3-c3ccc(OC)c(=O)cc32)cc(OC)c1OC | 0.0055 |
| 1.2 | CC(=O)N[C@H]1CCc2cc(O)c(O)c(O)c2-c2ccc(O)c(=O)cc21 | 1.2 |
| 0.0066 | COc1cc2c(c(OC)c1OC)-c1ccc(OC)c(=O)cc1[C@@H](NC(=O)C(F)(F)F)CC2 | 0.0088 |
| 0.04 | COc1cc(C(=O)N[C@H]2CCc3cc(OC)c(OC)c(OC)c3-c3ccc(OC)c(=O)cc32)cc(OC)c1OC | 0.02 |
| 0.27 | COc1cc2c(c(OC)c1O)-c1ccc(O)c(=O)cc1[C@@H](NC(C)=O)CC2 | 0.27 |
| 0.66 | COc1cc2c(c(OC)c1OC)-c1ccc(=O)c(OC)cc1[C@@H](NC(=O)C(F)(F)F)CC2 | 0.66 |

| Compound | IC50 [1] [µM] | EC50 [2] [µM] |
| --- | --- | --- |
| COc1cc2c(c(OC)c1OC)-c1ccc(OC)c(=O)cc1[C@@H](NC(C)=O)CC2 [COLCHICINE] | 0.018 | 0.01 |
| COc1cc2c(c(OC)c1OC)-c1ccc(O)c(=O)cc1[C@@H](N)CC2 | 1.2 | 1.3 |
| O=C(N[C@H]1CCc2cc(O)c(O)c(O)c2-c2ccc(=O)c(O)cc21)C(F)(F)F | 23 | 23 |
| N[C@H]1CCc2cc(O)c(O)c(O)c2-c2ccc(=O)c(O)cc21 | 50 | 30 |
